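Protocol summary: plate cells (96-well), add compound at 5 concentrations, incubate 48 h, interpolate endpoints linearly. At the GI50, growth is halved.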 Activity calls are given as the source filed them. Rule as the data show it: active = GI50 up to about 1.1 µM and inactive = higher.
Experiments:
Assay in all cases: NCI-60 cell line screen, 48 h
LOX IMVI = system: LOX IMVI
HOP-62 = system: HOP-62
DU-145 = system: DU-145
RPMI-8226 = system: RPMI-8226
K562 = system: K562
UACC-62 = system: UACC-62
SF-539 = system: SF-539
A549 = system: A549
M14 = system: M14
TK-10 = system: TK-10
SK-MEL-2 = system: SK-MEL-2
HT-29 = system: HT-29
UO-31 = system: UO-31
SK-MEL-28 = system: SK-MEL-28
CAKI-1 = system: CAKI-1
MDA-N = system: MDA-N
786-0 = system: 786-0
BT-549 = system: BT-549
NCI/ADR-RES = system: NCI/ADR-RES
SNB-75 = system: SNB-75

Structure (SMILES)	GI50 (LOX IMVI)	GI50 (HOP-62)	GI50 (DU-145)	GI50 (RPMI-8226)	GI50 (K562)	GI50 (UACC-62)	GI50 (SF-539)	GI50 (A549)	GI50 (M14)	GI50 (TK-10)	GI50 (SK-MEL-2)	GI50 (HT-29)	GI50 (UO-31)	GI50 (SK-MEL-28)	GI50 (CAKI-1)	GI50 (MDA-N)	GI50 (786-0)	GI50 (BT-549)	GI50 (NCI/ADR-RES)	GI50 (SNB-75)
O=c1sc2c(s1)SSSSS2	30.5 µM (inactive)	> 50 µM (inactive)	> 50 µM (inactive)	> 50 µM (inactive)	31.8 µM (inactive)	35.2 µM (inactive)	20.2 µM (inactive)	> 50 µM (inactive)	> 50 µM (inactive)	> 50 µM (inactive)	> 50 µM (inactive)	21.1 µM (inactive)	> 50 µM (inactive)	> 50 µM (inactive)	> 50 µM (inactive)	> 50 µM (inactive)	> 50 µM (inactive)	> 50 µM (inactive)	> 50 µM (inactive)	–
CCOC(=O)NC1CN2CCC1CC2 (configuration not stated)	> 100 µM (inactive)	> 100 µM (inactive)	> 100 µM (inactive)	> 100 µM (inactive)	> 100 µM (inactive)	> 100 µM (inactive)	> 100 µM (inactive)	> 100 µM (inactive)	> 100 µM (inactive)	–	> 100 µM (inactive)	> 100 µM (inactive)	> 100 µM (inactive)	> 100 µM (inactive)	> 100 µM (inactive)	> 100 µM (inactive)	> 100 µM (inactive)	–	> 100 µM (inactive)	> 100 µM (inactive)
Cc1nn2c(N)cc(=O)nc2nc1/C=C/c1ccc(N(C)C)cc1	4.11 µM (inactive)	9.55 µM (inactive)	> 100 µM (inactive)	10.1 µM (inactive)	9.08 µM (inactive)	5.02 µM (inactive)	–	16.9 µM (inactive)	> 28 µM (inactive)	> 100 µM (inactive)	> 49.2 µM (inactive)	4.76 µM (inactive)	3.94 µM (inactive)	> 84.5 µM (inactive)	3.45 µM (inactive)	5.82 µM (inactive)	> 28.8 µM (inactive)	> 32 µM (inactive)	> 100 µM (inactive)	–
COC(=O)C(CCc1ccccc1I)C1=CCC2(CC1)OCCO2 (configuration not stated)	25.8 µM (inactive)	70.1 µM (inactive)	73.8 µM (inactive)	62.2 µM (inactive)	66.4 µM (inactive)	81.5 µM (inactive)	> 100 µM (inactive)	31 µM (inactive)	28.2 µM (inactive)	38.3 µM (inactive)	41.2 µM (inactive)	35.1 µM (inactive)	23.1 µM (inactive)	89.9 µM (inactive)	95.3 µM (inactive)	24.2 µM (inactive)	51.3 µM (inactive)	–	24.6 µM (inactive)	34 µM (inactive)
COC(=O)CCC1(C)C2CCC1(C)/C(=N/O)C2 (configuration not stated)	–	> 100 µM (inactive)	> 100 µM (inactive)	> 100 µM (inactive)	> 100 µM (inactive)	> 100 µM (inactive)	–	> 100 µM (inactive)	> 100 µM (inactive)	> 100 µM (inactive)	> 100 µM (inactive)	> 100 µM (inactive)	> 100 µM (inactive)	> 100 µM (inactive)	> 100 µM (inactive)	> 100 µM (inactive)	> 100 µM (inactive)	> 100 µM (inactive)	> 100 µM (inactive)	> 100 µM (inactive)
CSc1ccc(/C=C2\CNC/C(=C\c3ccc(SC)cc3)C2=O)cc1	–	84.5 µM (inactive)	> 371 µM (inactive)	> 79.8 µM (inactive)	> 371 µM (inactive)	> 87.5 µM (inactive)	18.4 µM (inactive)	> 237 µM (inactive)	> 206 µM (inactive)	41.9 µM (inactive)	> 194 µM (inactive)	–	> 252 µM (inactive)	> 209 µM (inactive)	–	> 100 µM (inactive)	29.3 µM (inactive)	> 371 µM (inactive)	–	15 µM (inactive)
CC(=O)OCCOCn1c2c(c(=S)[nH]c1=O)CCC2	> 100 µM (inactive)	> 100 µM (inactive)	> 100 µM (inactive)	> 100 µM (inactive)	> 100 µM (inactive)	–	> 100 µM (inactive)	> 100 µM (inactive)	> 100 µM (inactive)	> 100 µM (inactive)	> 100 µM (inactive)	> 100 µM (inactive)	> 100 µM (inactive)	> 100 µM (inactive)	> 100 µM (inactive)	> 100 µM (inactive)	93.8 µM (inactive)	> 100 µM (inactive)	–	> 100 µM (inactive)
CCC#CCCCCCCCCC(F)C(=O)O (configuration not stated)	> 100 µM (inactive)	> 100 µM (inactive)	> 100 µM (inactive)	> 100 µM (inactive)	> 100 µM (inactive)	–	> 100 µM (inactive)	> 100 µM (inactive)	> 100 µM (inactive)	> 100 µM (inactive)	> 100 µM (inactive)	> 100 µM (inactive)	> 100 µM (inactive)	> 100 µM (inactive)	> 100 µM (inactive)	> 100 µM (inactive)	> 100 µM (inactive)	–	> 100 µM (inactive)	> 100 µM (inactive)
COc1cc(/C=C/C(=O)OC[C@H](Br)[C@H](OC(C)=O)c2ccc3c(c2)OCO3)cc(OC)c1OC	> 100 µM (inactive)	> 100 µM (inactive)	> 100 µM (inactive)	61.1 µM (inactive)	> 100 µM (inactive)	> 100 µM (inactive)	> 100 µM (inactive)	92.7 µM (inactive)	> 100 µM (inactive)	> 100 µM (inactive)	> 100 µM (inactive)	> 100 µM (inactive)	26 µM (inactive)	> 100 µM (inactive)	> 100 µM (inactive)	–	> 100 µM (inactive)	> 100 µM (inactive)	57.7 µM (inactive)	–
COc1c(-c2ccc(F)cc2)oc2c(CC(=O)O)cccc2c1=O	–	> 100 µM (inactive)	> 100 µM (inactive)	–	> 100 µM (inactive)	> 100 µM (inactive)	> 100 µM (inactive)	> 100 µM (inactive)	> 100 µM (inactive)	> 100 µM (inactive)	> 100 µM (inactive)	> 100 µM (inactive)	40.9 µM (inactive)	–	22.3 µM (inactive)	> 100 µM (inactive)	> 100 µM (inactive)	> 100 µM (inactive)	> 100 µM (inactive)	–
COc1cc2c(c(OC)c1O)-c1ccc(OC)c(=O)cc1[C@@H](NC(=O)C(F)(F)F)CC2	0.163 µM (active)	0.192 µM (active)	0.361 µM (active)	0.0252 µM (active)	–	0.0387 µM (active)	0.0243 µM (active)	0.472 µM (active)	0.0634 µM (active)	> 100 µM (inactive)	0.0282 µM (active)	0.0333 µM (active)	6.87 µM (inactive)	–	0.405 µM (active)	0.0262 µM (active)	0.327 µM (active)	1.98 µM (inactive)	3.72 µM (inactive)	–
COc1ccc2c(-c3ccc(OCCN(C)C)cc3)c(Oc3ccccc3)c(=O)oc2c1	3.74 µM (inactive)	13 µM (inactive)	12.2 µM (inactive)	4.25 µM (inactive)	3.07 µM (inactive)	2.78 µM (inactive)	3.91 µM (inactive)	3.37 µM (inactive)	1.64 µM (inactive)	9.79 µM (inactive)	5.33 µM (inactive)	7.59 µM (inactive)	4 µM (inactive)	2.31 µM (inactive)	8.67 µM (inactive)	–	2.87 µM (inactive)	11 µM (inactive)	4.5 µM (inactive)	6.95 µM (inactive)
COc1ccc(/C(=N/O)c2ccccc2C2=Nc3ccccc3C(NCc3ccccc3)O2)cc1C (configuration not stated)	15.7 µM (inactive)	31.1 µM (inactive)	69.8 µM (inactive)	26.2 µM (inactive)	16.7 µM (inactive)	23.9 µM (inactive)	96.2 µM (inactive)	49 µM (inactive)	39.4 µM (inactive)	–	32.7 µM (inactive)	25.1 µM (inactive)	20.6 µM (inactive)	44.1 µM (inactive)	56.2 µM (inactive)	34.7 µM (inactive)	44.3 µM (inactive)	–	41.8 µM (inactive)	24.9 µM (inactive)
CSC(SC)=C(C#N)C(=O)Nc1cccc(Cl)c1	93.3 µM (inactive)	67.9 µM (inactive)	–	–	32.4 µM (inactive)	59.6 µM (inactive)	57.5 µM (inactive)	65.9 µM (inactive)	47.8 µM (inactive)	59.3 µM (inactive)	> 100 µM (inactive)	46.7 µM (inactive)	–	64.7 µM (inactive)	45.9 µM (inactive)	58.5 µM (inactive)	33.8 µM (inactive)	36.6 µM (inactive)	32.5 µM (inactive)	> 100 µM (inactive)
NNC(=O)c1nn[nH]c1C(=O)NN	–	> 100 µM (inactive)	> 100 µM (inactive)	> 100 µM (inactive)	> 100 µM (inactive)	–	–	> 100 µM (inactive)	> 100 µM (inactive)	> 100 µM (inactive)	> 100 µM (inactive)	13.5 µM (inactive)	19 µM (inactive)	–	15.8 µM (inactive)	> 100 µM (inactive)	15.5 µM (inactive)	13.6 µM (inactive)	> 100 µM (inactive)	–
COc1cc(C2=N/C(=C/c3cccs3)C(=O)O2)cc(OC)c1OC	> 100 µM (inactive)	> 100 µM (inactive)	> 100 µM (inactive)	> 100 µM (inactive)	> 100 µM (inactive)	> 100 µM (inactive)	> 100 µM (inactive)	> 100 µM (inactive)	> 100 µM (inactive)	> 100 µM (inactive)	> 100 µM (inactive)	> 100 µM (inactive)	–	> 100 µM (inactive)	> 100 µM (inactive)	> 100 µM (inactive)	> 100 µM (inactive)	> 100 µM (inactive)	–	> 100 µM (inactive)
